This is an account of results in PubChem BioAssay AID1259411 (Chemical Carcinogenesis Research Information System (CCRIS), 2018).

This series concerns rodent carcinogenicity bioassays, tumor incidence. In words: CCRIS carcinogenicity studies. In a few lines:
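Archive of carcinogenicity, mutagenicity, tumor promotion and tumor inhibition results drawn from journals, NCI reports and other sources, expert-reviewed; covers 1985-2011 and is no longer updated.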

Activity calls are given as the source filed them. The rule behind the calls is not given here.

For `C[C@@H]1Cc2c(Cl)cc(C(=O)NC(Cc3ccccc3)C(=O)O)c(O)c2C(=O)O1` (stereo not given in full), the carcinogen call (Species: MOUSE, Strain/Sex: ALBINO/MALE,FEMALE, Route: GAVAGE, Dose: 0, 0.25 ML OF 50 PPM SOLUTION 2/WK FOR 20 WK (STUDY DURATION: 20 WK), Tumor Site: Type of Lesion: KIDNEY: CARCINOMA) is “active; positive”; the carcinogen call (Species: MOUSE, Strain/Sex: CD-1/FEMALE, Route: ORAL, Dose: 0, 0.031, 0.125, 0.5% IN DIET FOR 78 WK (STUDY DURATION: 78 WK), Dose: 0, 0.031, 0.125, 0.5% IN DIET FOR 78 WK (STUDY DURATION: 78 WK)) was “inactive; negative”; the carcinogen call (Species: MOUSE, Strain/Sex: CD-1/MALE, Route: ORAL, Dose: 0, 0.031, 0.125, 0.5% IN DIET FOR 78 WK (STUDY DURATION: 78 WK), Dose: 0, 0.031, 0.125, 0.5% IN DIET FOR 78 WK (STUDY DURATION: 78 WK)) is “inactive; negative”; the carcinogen call (Species: MOUSE, Strain/Sex: DDD/MALE, Route: ORAL, Dose: 0, 25 PPM IN DIET FOR 70 WK (STUDY DURATION: 70 WK), Tumor Site: Type of Lesion: KIDNEY: RENAL CELL TUMOR, LIVER: HEPATOMA) was “active; positive”; the carcinogen call (Species: MOUSE, Strain/Sex: DDY/MALE, Route: ORAL, Dose: 0, 7.05, 17.24, 26.27, 33.16, 35.86, 42.67 MG/MOUSE (TOTAL DOSE) ADMINISTERED AT A DOSE OF 50 PPM IN DIET FOR 0, 5, 10,, Dose: 0, 7.05, 17.24, 26.27, 33.16, 35.86, 42.67 MG/MOUSE (TOTAL DOSE) ADMINISTERED AT A DOSE OF 50 PPM IN DIET FOR 0, 5, 10,, Tumor Site: Type of Lesion: LIVER: HEPATOMA, KIDNEY: RENAL CELL TUMOR) was “active; positive”; the carcinogen call (Species: MOUSE, Strain/Sex: SWISS/MALE,FEMALE, Route: GAVAGE, Dose: 0, 0.25 ML OF A 50 PPM SOLUTION 2/WK FOR 20 WK (STUDY DURATION: 20 WK), Tumor Site: Type of Lesion: KIDNEY: CARCINOMA) is “active; positive”. In addition, the carcinogen call runs as follows: (Species: RAT, Strain/Sex: DA/FEMALE, Route: GAVAGE, Dose: 0, 0.4 MG/KG BW IN SODIUM BICARBONATE 3/WK FOR DURATION OF STUDY (STUDY DURATION: LIFESPAN)) “inactive; negative”; (Species: RAT, Strain/Sex: DA/MALE, Route: GAVAGE, Dose: 0, 0.4 MG/KG BW IN SODIUM BICARBONATE 3/WK FOR DURATION OF STUDY (STUDY DURATION: LIFESPAN), Tumor Site: Type of Lesion: KIDNEY: ADENOCARCINOMA, ADENOMA) “active; positive”; (Species: RAT, Strain/Sex: F344/FEMALE, Route: GAVAGE, Dose: 0, 21, 70, 210 UG/KG IN CORN OIL 5 D/WK FOR 103 WK (STUDY DURATION: 105 WK), Dose: 0, 21, 70, 210 UG/KG IN CORN OIL 5 D/WK FOR 103 WK (STUDY DURATION: 105 WK), Tumor Site: Type of Lesion: KIDNEY TUBULE: ADENOMA, CARCINOMA, MAMMARY GLAND: FIBROADENOMA, ADENOMA OR FIBROADENOMA OR ADENOCARCINOMA) “active; positive”; (Species: RAT, Strain/Sex: F344/MALE, Route: GAVAGE, Dose: 0, 21, 70, 210 UG/KG IN CORN OIL 5 D/WK FOR 103 WK (STUDY DURATION: 106 WK), Dose: 0, 21, 70, 210 UG/KG IN CORN OIL 5 D/WK FOR 103 WK (STUDY DURATION: 106 WK), Tumor Site: Type of Lesion: KIDNEY TUBULE: ADENOMA, CARCINOMA) “active; positive”; (Species: RAT, Strain/Sex: LEWIS/FEMALE, Route: GAVAGE, Dose: 0, 0.4 MG/KG BW IN SODIUM BICARBONATE 3/WK FOR DURATION OF STUDY (STUDY DURATION: LIFESPAN), Tumor Site: Type of Lesion: KIDNEY: ADENOCARCINOMA) “active; positive”; (Species: RAT, Strain/Sex: LEWIS/MALE, Route: GAVAGE, Dose: 0, 0.4 MG/KG BW IN SODIUM BICARBONATE 3/WK FOR DURATION OF STUDY (STUDY DURATION: LIFESPAN), Tumor Site: Type of Lesion: KIDNEY: ADENOCARCINOMA) “active; positive”.
Regarding `CC(C)=CC1C(C(=O)OC(C#N)c2cccc(Oc3ccccc3)c2)C1(C)C` (stereo not given), the carcinogen call (Species: Mouse, Strain/Sex: B6C3F1/Female (80/group), Route: Oral, Dose: 0, 100, 300, 1,000 ppm of 94.6-94.9% pure cyphenothrin for 104 wk, Dose: 0, 100, 300, 1,000 ppm of 94.6-94.9% pure cyphenothrin for 104 wk) was “inactive; negative (study details not presented by dpr evaluator)” and the carcinogen call (Species: Mouse, Strain/Sex: B6C3F1/Male (80/group), Route: Oral, Dose: 0, 100, 300, 1,000 ppm of 94.6-94.9% pure cyphenothrin for 104 wk, Dose: 0, 100, 300, 1,000 ppm of 94.6-94.9% pure cyphenothrin for 104 wk) was “inactive; negative (study details not presented by dpr evaluator)”.
As to `C=C(C)[C@H]1CC=C(C)CC1`, the carcinogen call runs as follows: (Species: MOUSE, Strain/Sex: B6C3F1/FEMALE, Route: GAVAGE, Dose: 0, 500, 1000 MG/KG IN CORN OIL 5 D/WK FOR 103 WK (STUDY DURATION: 105 WK), Dose: 0, 500, 1000 MG/KG IN CORN OIL 5 D/WK FOR 103 WK (STUDY DURATION: 105 WK)) “inactive; negative”; (Species: MOUSE, Strain/Sex: B6C3F1/MALE, Route: GAVAGE, Dose: 0, 250, 500 MG/KG IN CORN OIL 5 D/WK FOR 103 WK (STUDY DURATION: 105 WK), Dose: 0, 250, 500 MG/KG IN CORN OIL 5 D/WK FOR 103 WK (STUDY DURATION: 105 WK)) “inactive; negative”; (Species: RAT, Strain/Sex: F344/FEMALE, Route: GAVAGE, Dose: 0, 300, 600 MG/KG IN CORN OIL 5 D/WK FOR 103 WK (STUDY DURATION: 106 WK), Dose: 0, 300, 600 MG/KG IN CORN OIL 5 D/WK FOR 103 WK (STUDY DURATION: 106 WK)) “inactive; negative”; (Species: RAT, Strain/Sex: F344/MALE, Route: GAVAGE, Dose: 0, 75, 150 MG/KG IN CORN OIL 5 D/WK FOR 103 WK (STUDY DURATION: 106 WK), Dose: 0, 75, 150 MG/KG IN CORN OIL 5 D/WK FOR 103 WK (STUDY DURATION: 106 WK), Tumor Site: Type of Lesion: KIDNEY: TUBULAR CELL ADENOMA, TUBULAR CELL ADENOMA OR ADENOCARCINOMA) “active; positive”.
Turning to `CC(O)CN(C)c1ccc(NN)nn1` (stereo not given), the carcinogen call (Species: MOUSE, Strain/Sex: B6C3F1/MALE,FEMALE, Route: ORAL, Dose: 100, 200, 400 PPM IN DRINKING WATER FOR 80 WK, Dose: 100, 200, 400 PPM IN DRINKING WATER FOR 80 WK) is “inactive; negative”.
Regarding `NC(N)=Nc1nc(CSCCN=CNS(=O)(=O)c2ccc(Br)cc2)cs1`, the carcinogen call reads like this: (Species: MOUSE, Strain/Sex: CD-1/FEMALE, Route: ORAL, Dose: 0, 50, 200, 500 MG/KG FOR 18 MO (STUDY DURATION: 18 MO), Dose: 0, 50, 200, 500 MG/KG FOR 18 MO (STUDY DURATION: 18 MO)) “inactive; negative”; (Species: MOUSE, Strain/Sex: CD-1/MALE, Route: ORAL, Dose: 0, 50, 200, 500 MG/KG FOR 18 MO (STUDY DURATION: 18 MO), Dose: 0, 50, 200, 500 MG/KG FOR 18 MO (STUDY DURATION: 18 MO)) “inactive; negative”; (Species: RAT, Strain/Sex: SPRAGUE-DAWLEY/FEMALE, Route: ORAL, Dose: 0, 50, 200, 500 MG/KG FOR 13 MO THEN 0, 50, 150, 300, 500 MG/KG FOR DURATION OF STUDY (STUDY DURATION: 24 MO), Dose: 0, 50, 200, 500 MG/KG FOR 13 MO THEN 0, 50, 150, 300, 500 MG/KG FOR DURATION OF STUDY (STUDY DURATION: 24 MO)) “inactive; negative”; (Species: RAT, Strain/Sex: SPRAGUE-DAWLEY/FEMALE, Route: ORAL, Dose: INITIALLY: 0, 50, 200, 500 MG/KG BW, THEN 0, 50, 150, 300, 500 (200 MG/KG DOSE LOWERED TO 150 MG/KG AFTER 13 MONTHS AND, Dose: INITIALLY: 0, 50, 200, 500 MG/KG BW, THEN 0, 50, 150, 300, 500 (200 MG/KG DOSE LOWERED TO 150 MG/KG AFTER 13 MONTHS AND) “inactive; negative”; (Species: RAT, Strain/Sex: SPRAGUE-DAWLEY/MALE, Route: ORAL, Dose: 0, 50, 200, 500 MG/KG FOR 13 MO THEN 0, 50, 150, 300, 500 MG/KG FOR DURATION OF STUDY (STUDY DURATION: 24 MO), Dose: 0, 50, 200, 500 MG/KG FOR 13 MO THEN 0, 50, 150, 300, 500 MG/KG FOR DURATION OF STUDY (STUDY DURATION: 24 MO)) “inactive; negative”; (Species: RAT, Strain/Sex: SPRAGUE-DAWLEY/MALE, Route: ORAL, Dose: INITIALLY: 0, 50, 200, 500 MG/KG BW, THEN 0, 50, 150, 300, 500 (200 MG/KG DOSE LOWERED TO 150 MG/KG AFTER 13 MONTHS AND, Dose: INITIALLY: 0, 50, 200, 500 MG/KG BW, THEN 0, 50, 150, 300, 500 (200 MG/KG DOSE LOWERED TO 150 MG/KG AFTER 13 MONTHS AND) “inactive; negative”.
